Columns and labels:
Acute toxicity in mice = conditions: in vivo, mouse, after one week
Procedure: (§1) (1) Acute toxicity and tonic convulsion in hind paw:
(§2) The acute toxicity and tonic convulsion occured by stimulus by hand touch were determined in the following manner to give the results shown in Table 2.
(a) Acute toxicity in mice:
38 Groups, each consisting of 5 mice (male dd-strain, weight -- 18 to 24 g), were used for the test and control groups. The compounds shown in Table 2 were administered orally or intraperitoneally to the mice. After one week, the survival ratio was measured.

Acute toxicity in rats = conditions: in vivo; rat, oral administration, after one week; read-out: Acute Toxicity (LD50), C
Procedure: as §1, §2
(b) Acute toxicity in rats:
28 Groups, each consisting of 5 rats (male Wistar strain, weight -- 200 g), were used for the test and control groups. The compounds shown in Table 2 were orally administered to the rats. After one week, the survival ratio was measured.

[1] = system: hyperlipemia induced by Triton; test: Cholesterol-lowering activity on hyperlipemia induced by Triton in mice; assay type: in vivo, mice (male dd-strain); conditions: Mus musculus, po, 43 h, read-out: Ratio of the reduction of cholesterol
Procedure: (2) Cholesterol-Lowering activity on hyperlipemia induced by Triton in mice:
38 Groups, each consisting of 9 mice (male dd-strain, weight -- 19 to 21 g), were used for the test and control groups. […] Immediately after the administration and also after 20 hours from the administration of Triton, the mice were orally administered with 100 mg/kg of the compound shown in Table 3. 43 hours after the administration of Triton, the blood samples were collected by decapitation and then the corpuscle was removed by centrifugation. Cholesterol in the serum was determined by Zurkowski's method modified by Shibata (color of the test solution was developed by using sulfoalicyclic acid, acetic acid and sulfuric acid and the optical density of the solution was determined at 620 mμ.

Cholesterol in the serum = test: Cholesterol-lowering activity on normal rats of Wistar strain (serum cholesterol, liver weight); assay type: in vivo, rats (male Wistar strain); conditions: continuous administration for 4 days, 0.3% in diet
Procedure: (3) Cholesteral-lowering activity on normal rats of Wistar strain:
(i) 22 Groups, each consisting of 5 rats (male Wistar strain, weight -- 150 to 180 g) were used for the test and control groups. After this, the blood samples were collected by decapitation and then the corpuscle was removed by centrifugation. Cholesterol in the serum was determined by Zurkowski's method modified by Shibata and also the liver was excised and weighed. The results are shown in Table 4 wherein the ratio of 100% denotes the amount of chloresterol and the weight of the liver of normal rats fed with powdery diet without the addition of the compound.

[2] = oral administration, read-out: Acute Toxicity (LD50), A
[3] = ip, intraperitoneal administration, read-out: Acute Toxicity (LD50), B

Compound: COC(=O)C(Cc1ccccc1)NC(=O)SCc1ccccc1 (racemic) [Compound 19, N-benzylthiocarbonyl-D,L-phenylalanine methylester]
- LD50 at 168 h (Acute toxicity in mice; [2]): > 1000 mg/kg
- LD50 at 168 h (Acute toxicity in rats): > 100 mg/kg
- inhibition in vivo at 100 mg/kg [1]: 84%
- B - Ratio of decrease of liver weight (Cholesterol in the serum): 19.8%

Compound: Cc1ccc(CSC(=O)NC(Cc2ccccc2)C(=O)O)cc1 (racemic) [Compound 35, N-(4-methylbenzylthiocarbonyl)-DL-phenylalanine]
- LD50 at 168 h (Acute toxicity in mice; [2]): > 1000 mg/kg
- inhibition in vivo at 100 mg/kg [1]: 22%

Compound: CCOC(=O)[C@H](Cc1ccccc1)NC(=O)SCc1ccc(C)cc1 [Compound 3, N-(4-methylbenzylthiocarbonyl)-L-phenylalanine ethylester]
- LD50 at 168 h (Acute toxicity in mice; [2]): > 1000 mg/kg
- inhibition in vivo at 100 mg/kg [1]: 57%

Compound: Cc1ccc(CSC(=O)N[C@@H](Cc2ccccc2)C(N)=O)cc1 [Compound 4, N-(4-methylbenzylthiocarbonyl)-L-phenylalanine amide]
- LD50 at 168 h (Acute toxicity in mice; [3]): > 100 mg/kg
- LD50 at 168 h (Acute toxicity in mice; [2]): > 1000 mg/kg
- LD50 at 168 h (Acute toxicity in rats): > 100 mg/kg
- inhibition in vivo at 100 mg/kg [1]: 23%
- B - Ratio of decrease of liver weight (Cholesterol in the serum): 6.2%

Compound: CCNC(=O)[C@H](Cc1ccccc1)NC(=O)SCc1ccc(C)cc1 [Compound 5, N-(4-methylbenzylthiocarbonyl)-L-phenylalanine ethylamide]
- LD50 at 168 h (Acute toxicity in mice; [3]): > 100 mg/kg
- LD50 at 168 h (Acute toxicity in mice; [2]): > 1000 mg/kg
- LD50 at 168 h (Acute toxicity in rats): > 100 mg/kg
- inhibition in vivo at 100 mg/kg [1]: 0%

Compound: COC(=O)[C@H](Cc1ccccc1)NC(=O)[C@H](Cc1ccccc1)NC(=O)SCc1ccc(C)cc1 [Compound 6, N-(4-methylbenzylthiocarbonyl)-L-phenylalanyl-L-phenylalanine methylester]
- LD50 at 168 h (Acute toxicity in mice; [3]): > 100 mg/kg
- LD50 at 168 h (Acute toxicity in mice; [2]): > 300 mg/kg
- LD50 at 168 h (Acute toxicity in rats): > 100 mg/kg
- inhibition in vivo at 100 mg/kg [1]: 39%

Compound: O=C(N[C@@H](Cc1ccccc1)C(=O)O)SCc1ccc(Cl)cc1 [Compound 7, N-(4-chlorobenzylthiocarbonyl)-L-phenylalanine]
- LD50 at 168 h (Acute toxicity in mice; [3]): > 100 mg/kg
- LD50 at 168 h (Acute toxicity in mice; [2]): > 300 mg/kg
- LD50 at 168 h (Acute toxicity in rats): > 100 mg/kg
- inhibition in vivo at 100 mg/kg [1]: 94%

Compound: COC(=O)[C@H](Cc1ccccc1)NC(=O)SCc1ccc(Cl)cc1 [Compound 8, N-(4-chlorobenzylthiocarbonyl)-L-phenylalanine methylester]
- LD50 at 168 h (Acute toxicity in mice; [3]): > 100 mg/kg
- LD50 at 168 h (Acute toxicity in mice; [2]): > 4000 mg/kg
- LD50 at 168 h (Acute toxicity in rats): > 200 mg/kg
- inhibition in vivo at 100 mg/kg [1]: 88%

Compound: NC(=O)[C@H](Cc1ccccc1)NC(=O)SCc1ccc(Cl)cc1 [Compound 9, N-(4-chlorobenzylthiocarbonyl)-L-phenylalanine amide]
- LD50 at 168 h (Acute toxicity in mice; [3]): > 100 mg/kg
- LD50 at 168 h (Acute toxicity in mice; [2]): > 1000 mg/kg
- LD50 at 168 h (Acute toxicity in rats): > 100 mg/kg
- inhibition in vivo at 100 mg/kg [1]: 57%
- B - Ratio of decrease of liver weight (Cholesterol in the serum): 71%

Compound: CCNC(=O)[C@H](Cc1ccccc1)NC(=O)SCc1ccc(Cl)cc1 [Compound 10, N-(4-chlorobenzylthiocarbonyl)-L-phenylalanine ethylamide]
- LD50 at 168 h (Acute toxicity in mice; [3]): > 100 mg/kg
- LD50 at 168 h (Acute toxicity in mice; [2]): > 300 mg/kg
- LD50 at 168 h (Acute toxicity in rats): > 100 mg/kg
- inhibition in vivo at 100 mg/kg [1]: 43%

Compound: COC(=O)[C@H](Cc1ccccc1)NC(=O)[C@H](Cc1ccccc1)NC(=O)SCc1ccc(Cl)cc1 [Compound 11, N-(4-chlorobenzylthiocarbonyl)-L-phenylalanyl-L-phenylalanine methylester]
- LD50 at 168 h (Acute toxicity in mice; [3]): > 100 mg/kg
- LD50 at 168 h (Acute toxicity in mice; [2]): > 300 mg/kg
- LD50 at 168 h (Acute toxicity in rats): > 100 mg/kg
- inhibition in vivo at 100 mg/kg [1]: 75%

Compound: COC(=O)[C@H](Cc1ccccc1)NC(=O)SCc1ccc(OC)cc1 [Compound 13, N-(4-methoxybenzylthiocarbonyl)-L-phenylalanine methylester]
- LD50 at 168 h (Acute toxicity in mice; [3]): > 100 mg/kg
- LD50 at 168 h (Acute toxicity in mice; [2]): > 1000 mg/kg
- LD50 at 168 h (Acute toxicity in rats): > 100 mg/kg
- inhibition in vivo at 100 mg/kg [1]: 56%
- B - Ratio of decrease of liver weight (Cholesterol in the serum): 38%

Compound: O=C(N[C@@H](Cc1ccccc1)C(=O)O)SCc1ccc([N+](=O)[O-])cc1 [Compound 14, N-(4-nitrobenzylthiocarbonyl)-L-phenylalanine]
- LD50 at 168 h (Acute toxicity in mice; [2]): > 1000 mg/kg
- LD50 at 168 h (Acute toxicity in rats): > 100 mg/kg
- inhibition in vivo at 100 mg/kg [1]: 66%
- B - Ratio of decrease of liver weight (Cholesterol in the serum): 48.0%

Compound: COC(=O)[C@H](Cc1ccccc1)NC(=O)SCc1ccc([N+](=O)[O-])cc1 [Compound 15, N-(4-nitrobenzylthiocarbonyl)-L-phenylalanine methylester]
- LD50 at 168 h (Acute toxicity in mice; [2]): > 1000 mg/kg
- LD50 at 168 h (Acute toxicity in rats): > 100 mg/kg
- inhibition in vivo at 100 mg/kg [1]: 29%
- B - Ratio of decrease of liver weight (Cholesterol in the serum): 38.9%

Compound: COC(=O)[C@H](Cc1ccccc1)NC(=O)SCc1cccc(C)c1 [Compound 23, N-(3-methylbenzylthiocarbonyl)-L-phenylalanine methylester]
- LD50 at 168 h (Acute toxicity in mice; [2]): > 1000 mg/kg
- inhibition in vivo at 100 mg/kg [1]: 48%

Compound: Cc1cccc(C)c1CSC(=O)N[C@@H](Cc1ccccc1)C(=O)O [Compound 24, N-(2,6-dimethylbenzylthiocarbonyl)-L-phenylalanine]
- LD50 at 168 h (Acute toxicity in mice; [2]): > 1000 mg/kg
- LD50 at 168 h (Acute toxicity in rats): > 100 mg/kg
- inhibition in vivo at 100 mg/kg [1]: 34%
- B - Ratio of decrease of liver weight (Cholesterol in the serum): 15.0%

Compound: COC(=O)[C@H](Cc1ccccc1)NC(=O)SCc1c(C)cccc1C [Compound 25]
- LD50 at 168 h (Acute toxicity in mice; [2]): > 1000 mg/kg
- LD50 at 168 h (Acute toxicity in rats): > 100 mg/kg
- inhibition in vivo at 100 mg/kg [1]: 37%
- B - Ratio of decrease of liver weight (Cholesterol in the serum): 45.3%

Compound: Cc1ccc(C)c(CSC(=O)N[C@@H](Cc2ccccc2)C(=O)O)c1 [Compound 26, N-(2,5-dimethylbenzylthiocarbonyl)-L-phenylalanine]
- LD50 at 168 h (Acute toxicity in mice; [2]): > 1000 mg/kg
- LD50 at 168 h (Acute toxicity in rats): > 100 mg/kg
- inhibition in vivo at 100 mg/kg [1]: 43%
- B - Ratio of decrease of liver weight (Cholesterol in the serum): 0.8%

Compound: COC(=O)[C@H](Cc1ccccc1)NC(=O)SCc1cc(C)ccc1C [Compound 27, N-(2,5-dimethylbenzylthiocarbonyl)-L-phenylalanine methylester]
- LD50 at 168 h (Acute toxicity in mice; [2]): > 1000 mg/kg
- LD50 at 168 h (Acute toxicity in rats): > 100 mg/kg
- inhibition in vivo at 100 mg/kg [1]: 30%
- B - Ratio of decrease of liver weight (Cholesterol in the serum): -0.2%

Compound: CC(C)(C)c1ccc(CSC(=O)N[C@@H](Cc2ccccc2)C(=O)O)cc1 [Compound 28, N-(4-tert-butylbenzylthiocarbonyl)-L-phenylalanine]
- LD50 at 168 h (Acute toxicity in mice; [2]): > 1000 mg/kg
- LD50 at 168 h (Acute toxicity in rats): > 100 mg/kg
- inhibition in vivo at 100 mg/kg [1]: 50%
- B - Ratio of decrease of liver weight (Cholesterol in the serum): 10.6%

Compound: Cc1c(C)c(C)c(CSC(=O)N[C@@H](Cc2ccccc2)C(=O)O)c(C)c1C [Compound 29, N-(2,3,4,5,6-pentamethylbenzylthiocarbonyl)-L-phenylalanine]
- LD50 at 168 h (Acute toxicity in mice; [2]): > 1000 mg/kg
- LD50 at 168 h (Acute toxicity in rats): > 100 mg/kg
- inhibition in vivo at 100 mg/kg [1]: 59%

Compound: O=C(N[C@@H](Cc1ccccc1)C(=O)O)SCc1ccc(F)cc1 [Compound 33, N-(4-fluorobenzylthiocarbonyl)-L-phenylalanine]
- LD50 at 168 h (Acute toxicity in mice; [2]): > 1000 mg/kg
- inhibition in vivo at 100 mg/kg [1]: 79%

Compound: Cc1ccc(CSC(=O)N[C@H](Cc2ccccc2)C(=O)O)cc1 [Compound 34, N-(4-methylbenzylthiocarbonyl)-D-phenylalanine]
- LD50 at 168 h (Acute toxicity in mice; [2]): > 1000 mg/kg
- inhibition in vivo at 100 mg/kg [1]: 11%

Compound: CC(=O)Oc1ccc(CSC(=O)N[C@@H](Cc2ccccc2)C(=O)O)cc1 [Compound 36, N-(4-acetoxybenzylthiocarbonyl)-L-phenylalanine]
- LD50 at 168 h (Acute toxicity in mice; [2]): > 1000 mg/kg
- inhibition in vivo at 100 mg/kg [1]: 83%

Compound: COC(=O)[C@H](Cc1ccccc1)NC(=O)SCc1ccc(O)cc1 [Compound 37, N-(4-hydroxybenzylthiocarbonyl)-L-phenylalanine methylester]
- LD50 at 168 h (Acute toxicity in mice; [2]): > 1000 mg/kg
- inhibition in vivo at 100 mg/kg [1]: 74%

Source: patent US4138485A, “Phenylalanine derivatives” (Kyowa Hakko Kogyo Kabushiki Kaisha, priority 1976, dated 1979)
